Results taken from patent US12599130B2, “Liquid agricultural adjuvant” (Oro Agri Inc., priority 2019, dated 2026).

Key:
[1] = Paraffin wax solubility test; format: physicochemical; details: 2.0 g paraffin wax in 98 g solvent, 25° C.; for OBSERVATION: up to 24 hours stirring; for DISSOLUTION TIME: stirring at 350 rpm
wheat = experiment: Field trial: wheat cover crop burndown with glyphosate plus adjuvant at full tillering; format: in vivo; details: adjuvant rate 10 g/L, glyphosate 420 g ae/ha
Protocol: Adjuvant x Adjuvant rate effect on wheat cover crop burndown with glyphosate at full tillering stage.
A bifactorial trial was conducted consisting of […] treatments, comprised of a combination of 10 adjuvants (factor A) and 2 adjuvants rates (factor B), plus three reference treatments (Table 6).
Prior to treatment application, two plots per block were chosen to record wheat height and tiller number per plant. In each plot, the height of the tallest and shortest plant was measured, and the tillers counted.
Herbicide application was done using a single-nozzle boom connected to a backpack CO2 pressurized system. Each plot measured 3 ft×20 ft. After 14 and 28 days of application, wheat desiccation was evaluated visually using a 0-100% scale, where 0 corresponds to absence of injury symptoms and 100% corresponds to plant death.

CCCCCCCCCC(=O)N(C)C
OBSERVATION [1]: UNDISSOLVED

CCCCCCCCCCCC(=O)OCC(CC)CCCC (stereo not drawn) [2-ETHYLHEXYL LAURATE]
DISSOLUTION TIME [1]: 930 min

N.N.O=S(=O)(O)O [Ammonium sulfate]
Wheat desiccation (%) (wheat; 14 DAT): 80%
Wheat desiccation (%) (wheat; 28 DAT): 95%

O=C1CCCCC1 [CYCLOHEXANONE]
OBSERVATION [1]: UNDISSOLVED

C[S+](C)[O-] [DIMETHYL SULFOXIDE]
OBSERVATION [1]: UNDISSOLVED

CCCCCCCCCCCC(=O)OCCC(C)C [ISOAMYL LAURATE]
DISSOLUTION TIME [1]: 620 min

CCCCCCCCCCCC(=O)OCC(C)C [ISOBUTYL LAURATE]
DISSOLUTION TIME [1]: 340 min

CCCCCCCCCCCC(=O)OC(C)C [ISOPROPYL LAURATE]
DISSOLUTION TIME [1]: 102 min

CCCCCCCCCCCC(=O)OC [METHYL LAURATE]
DISSOLUTION TIME [1]: 300 min

CC1COC(=O)O1 (stereo not drawn) [PROPYLENE CARBONATE]
OBSERVATION [1]: UNDISSOLVED

OCC1CCCO1 (stereo not drawn) [TETRAHYDROFURFURAL ALCOHOL]
OBSERVATION [1]: UNDISSOLVED
